This note sets out measurements from ChEMBL document CHEMBL3301464, “MMV Malaria Box anti-babesial screening”.

A short description of test [1]: (§1) MMV: Anti-babesial activity assay. Parasite pRBCs at 1% parasitemia were cultivated in 100 ul with 96-well plates at 2.5% and 5% hematocrits. The parasites were cultivated in triplicate for 4 days without replacement of the medium for each concentration of the compound. It is filed as functional, Babesia bovis.
Test [2] in a line: as §1. The format is functional, Babesia bigemina.
A short description of test [3]: as §1. The format is functional, Babesia equi.
Test [4] in a line: as §1. The format is functional, Babesia caballi.

In the case of `COc1cccc(-c2nn(C)c3sc(C(=O)NCCN4CCN(c5ccccc5F)CC4)cc23)c1`, the IC50 (in general, the concentration that gives 50% inhibition) turned out to be 2.06 µM in test [1], 10 µM in test [2], 5.93 µM in test [3] and 6.8 µM in test [4].
For `COc1ccc(-c2nonc2NC(=O)c2cccc(Cl)c2)cc1OC`, in that order: 10 µM, 8.2 µM, 16.6 µM and 11.5 µM.
For `COc1cccc(O)c1CN1CCC2(CCCN(Cc3ccc(F)cc3)C2)C1` (configuration not stated), in that order: 2.45 µM, 10 µM, 4.6 µM and 3.09 µM.
The like results for `CC(=O)c1sc(NC(=O)Nc2ccc(C)cc2C)nc1C` were, in that order, 11.1 µM, 10 µM, 7.26 µM and 5.3 µM.
Consider `CCOC(=O)C1=CN(C)C=C(C(=O)OCC)C1c1cc(Br)c(OCC)c(OC)c1`, for which the IC50 stood at 0.091 µM in test [1], 0.1 µM in test [2], 14.1 µM in test [3] and 2.63 µM in test [4].
The like results for `COc1cccc(C2(C)Nc3ccccc3-c3nc4ccccc4n32)c1` (configuration not stated) were, in that order, 13.9 µM, 25 µM, 10 µM and 1 µM.
`CN(C)c1ccc(C=Cc2nc(=O)c3ccccc3o2)cc1`: the IC50 in test [1] was found to be 16.2 µM; in test [2] it was 16.8 µM; in test [3] it was 11.5 µM; in test [4], 14.6 µM.
For `COCCn1c(C)nc2ccccc2c1=O`, in that order: 14.3 µM, 14.7 µM, 12.9 µM and 13.9 µM.
Take `COc1cc(OC)cc(N2C(=O)N(Cc3ccc(C(C)(C)C)cc3)c3ccccc3S2(=O)=O)c1`: the IC50 in test [1] turned out to be 1 µM; in test [2] it was 0.19 µM; in test [3], 13.3 µM; in test [4] it was 7.54 µM.
For `Cc1cc(NC(=O)c2ccc(-c3ccccc3)cc2)no1`, in that order: 0.24 µM, 8.54 µM, 12.4 µM and 0.076 µM.
The like results for `COCCN(C(=O)Cc1cccs1)C(C(=O)NCc1ccc(OC)cc1)c1ccc(C(C)C)cc1` (configuration not stated) were, in that order, 25 µM, 13.2 µM, 5.79 µM and 17.2 µM.
For `Nc1nc(Nc2cccc(F)c2)nc2ccccc12`, in that order: 0.73 µM, 7.65 µM, 0.79 µM and 6.08 µM.
As to `COc1ccc(CNC2CCN(c3ccc(NC(=O)c4cccc(Cl)c4)cc3)CC2)cc1OC`, the IC50 in test [1] stood at 0.1 µM; in test [2] it was 0.85 µM; in test [3], 0.309 µM; in test [4], 12.4 µM.
The like results for `CCOC(=O)C1CCN(C(=O)CN2C(=O)c3ccccc3C2c2c[nH]c3ccccc23)CC1` (configuration not stated) were, in that order, greater than 25 µM, 25 µM, 4.19 µM and 5.35 µM.
Consider `CC(Oc1ccc(NC(=O)c2cccs2)cc1)C(=O)c1ccc(Cl)cc1` (configuration not stated), for which the IC50 came to 0.1 µM in test [1], 0.081 µM in test [2], 13.3 µM in test [3] and 0.29 µM in test [4].
For `N#Cc1nc(Cc2cccc3ccccc23)oc1N1CCN(C(c2ccccc2)c2ccccc2)CC1`, in that order: 16.1 µM, 19.8 µM, 12 µM and 5.09 µM.
As for `c1ccc(-c2ccc(-c3nc4ccccc4[nH]3)cc2)cc1`, the IC50 in test [1] came to 25 µM; in test [2], 10 µM; in test [3], 10 µM; in test [4], 14.8 µM.
For the compound `CCOC(=O)c1cnc2ccc(Cl)cc2c1NCCCN(C)C`, the IC50 turned out to be 0.42 µM in test [1], 5.51 µM in test [2], 3.86 µM in test [3] and 0.11 µM in test [4].
The like results for `O=C(CCc1ccccc1)c1ccccc1OCC(O)CN1CCCCC1` (configuration not stated) were, in that order, 4.52 µM, 5.69 µM, 10.7 µM and 7.26 µM.
The like results for `CCOC(=O)c1c(C)n(-c2ccccc2)c2ccc(OC(=O)c3cc(OC)c(OC)c(OC)c3)cc12` were, in that order, 18.6 µM, 12.6 µM, 16.5 µM and 5.9 µM.
For `Cn1c(C(=O)c2cccc3ccccc23)nc2ccccc21`, in that order: 3.73 µM, 12 µM, 10 µM and 0.81 µM.
As to `COc1ccc(NC(=O)C2c3ccccc3C(=O)N(CC(C)C)C2c2cccs2)cc1` (configuration not stated), the IC50 in test [1] came out at 12.6 µM; in test [2] it was 17.3 µM; in test [3], 8.02 µM; in test [4], 9.09 µM.
In the case of `COc1cccc(Nc2nc(N)c3ccccc3n2)c1`, the IC50 in test [1] was 0.12 µM; in test [2], 0.057 µM; in test [3] it was 17.2 µM; in test [4] it was 2.95 µM.
The like results for `FC(F)(F)c1ccc(Nc2nnnc3ccccc23)cc1` were, in that order, 25 µM, 7.18 µM, 10 µM and 13.4 µM.
For `Oc1ccc2ccccc2c1CNc1nc2ccccc2[nH]1`, in that order: 6.81 µM, 10 µM, 4.37 µM and 3.04 µM.
The like results for `CC(C)(C)c1ccc(C(=O)Nc2c3c(nn2-c2cccc(Cl)c2)CSC3)cc1` were, in that order, 4.21 µM, 0.72 µM, 8.96 µM and 17 µM.
With `C=CC12CCN(CC1)C(C(O)c1ccnc3ccc(OC)cc13)C2` (configuration not stated), the IC50 in test [1] turned out to be 17.3 µM; in test [2], 14.4 µM; in test [3] it was 3.21 µM; in test [4], 13.1 µM.
For `CC(C)(C)c1ccc(C2CC3=Nc4ccccc4N(C(=O)c4ccccc4Cl)C(c4ccc(F)cc4)C3=C(O)C2)cc1` (configuration not stated), in that order: 21.4 µM, 12 µM, 15.2 µM and 3.73 µM.
For `Cc1cc(N2CCCC2)nc(Nc2ccc(NC(=O)CCc3ccccc3)cc2)n1`, in that order: 15.5 µM, 13.4 µM, 3.02 µM and 3.53 µM.
The like results for `CC(C)(C)c1ccc(C(=O)Nc2nc3ccccc3s2)cc1` were, in that order, 7 µM, 12.9 µM, 10 µM and 1 µM.
`Cc1ccccc1OCCSc1nc2ccc(NC(=O)c3ccccc3)cc2s1`: the 50% inhibitory concentration (IC50) in test [1] came out at 0.9 µM; in test [2], 0.26 µM; in test [3], 1 µM; in test [4], 16.9 µM.
On to `CCOc1ccc(-c2nc(NC(=O)c3cccc(S(C)(=O)=O)c3)sc2C)cc1`, for which the IC50 in test [1] stood at 4.48 µM; in test [2], 15 µM; in test [3], 17.7 µM; in test [4] it was 11.9 µM.
The like results for `CCCCc1ccc(NS(=O)(=O)c2cc3c4c(c2)CCN4C(=O)CC3)cc1` were, in that order, 25 µM, 12.5 µM, 0.57 µM and 0.07 µM.
